Tested on: 292921-168-R-J2-PDC complex spheroid viability
Experiment: Anticancer human tumor 292921-168-R-J2-PDC patient-derived pancreatic carcinoma cell line growth inhibition
Conditions: for IC50: curve of first compound; for viability, T/C: stronger effect = lower value
Source text: Multicellular complex tumor spheroid response to LSD1 Inhibitor Iadademstat in combination with a variety of drugs and investigational agents in selected tumor cell lines
The current study was undertaken to assess response to LSD1 inhibitors in combination with standard-of-care drugs and investigational agents in solid tumor complex spheroid models as well as in the K-562 leukemia. Complex spheroids include a stromal component modeled by human endothelial cells (HUVEC) and fibroblasts modeled by human mesenchymal stem cells (MSCs). The concentration ranges selected for each drug and investigational agent were based upon clinically achievable concentrations if the clinical Cmax of the agent was known.
Compounds. The drugs and investigational agents used in this study are listed on Table 1. All of the agents used, including staurosporine (NSC755774) and gemcitabine (NSC613327), were obtained from the Developmental Therapeutics Program, NCI. FDA-approved anticancer drugs are available from the NCI at http://dtp.nci.nih.gov/branches/dscb/oncology_drugset_explanation.html. Drugs and investigational agents were >95% pure by proton nuclear magnetic resonance (NMR) and liquid chromatography/mass spectrometry (LC/MS). Stock solutions were prepared at 400x in DMSO, stored at -70 degrees C, and diluted in fresh medium prior to their use. The final concentration of DMSO in cell culture wells never exceeded 0.25% (v/v). The FDA-approved anticancer drug set is available from the Developmental Therapeutics Program at https://dtp.cancer.gov/organization/dscb/obtaining/available_plates.htm. All drugs and investigational agents were tested over a range starting from a high concentration at or near the clinical Cmax and decreasing in half-log increments. If the clinical Cmax for an agent had not been determined, the highest concentration tested was 10 microM.
Cell Lines. The patient-derived cancer cell (PDC) lines: 292921-168-R-J2-PDC, K24384-001-R-PDC, and 521955-158-R2-J5-PDC pancreatic carcinomas, 556581-035-R-J1 ovarian carcinoma, 324938-238-R-J1-PDC, 855422-203-R-J1-PDC and 883617-216-R-J1-PDC urothelial bladder carcinomas, 743489-274-T-PDC renal cell carcinoma, 138582-R-J1 Merkel cell tumor, K60290-347-R-J1 and K57222-313-R-J1-PDC glioblastomas, 653999-131-R-J2-PDC, LG0703-F948-PDC, and 349418-098-R-PDC non-small cell lung carcinomas, 885512-296-R-J2-PDC, 171881-019-R-J1-PDC breast carcinomas and 186277-243-T-J2-PDC and 233499-124-R-J2-PDC colon carcinomas were obtained from the NCI Patient-Derived Models Repository (PDMR, https://pdmr.cancer.gov). The established cell lines NCI/ADR-RES (RRID:CVCL_14520 and OVCAR-5 (RRID:CVCL_1628) ovarian carcinomas, 786-O (RRID:CVCL_1051) and A498 (RRID:CVCL_A498) renal cell carcinoma, NCI-H211 (ATCC, cat. CRL-5824; RRID:CVCL_1529), NCI-H196 (ATCC, cat. CRL-5823, RRID:CVCL_1509), SW 1271 (ATCC, cat. CRL-2177, RRID:CVCL_1716) and NCI-H1876 (ATCC, cat. CRL-5902, RRID:CVCL_1503) small cell lung carcinomas, MDA-MB-231 (RRID:CVCL_0062) and MDA-MB-468 (RRID:CVCL_0419)breast carcinomas (10-12). Pooled donor human umbilical vein endothelial cells (HUVEC, Lonza, cat. CC-2519) and human mesenchymal stem cells (hMSC, Lonza, cat. PT-2501) were purchased from Lonza (Walkersville, MD).
Cell Culture. All cells were maintained in an incubator at 37 degrees C and 5% CO2 with 95% humidity. The PDC lines were cultured according to standard operating procedures established by the NCI PDMR (https://pdmr.cancer.gov). Briefly all PDCs were thawed and cultured in Matrigel-coated flasks prepared with a working solution of 1X Ham's F-12 nutrient mix, without supplementation (Invitrogen, Waltham, MA, cat. 11765054), 100 U/mL penicillin-streptomycin (Invitrogen, cat. 15140122), and 2.5% Matrigel (Corning Inc., Corning, NY, cat. 354248) for the first three passages. […]

[1] = second compound 0.1 µM, first compound 0.00949 µM
[2] = second compound 0.1 µM, first compound 0.03 µM
[3] = second compound 0.1 µM, first compound 0.0949 µM
[4] = second compound 0.1 µM, first compound 0.3 µM
[5] = second compound 0.1 µM, first compound 0.949 µM
[6] = second compound 0.1 µM, first compound 3 µM
[7] = second compound 0.316 µM, first compound 0.00949 µM
[8] = second compound 0.316 µM, first compound 0.03 µM
[9] = second compound 0.316 µM, first compound 0.0949 µM
[10] = second compound 0.316 µM, first compound 0.3 µM
[11] = second compound 0.316 µM, first compound 0.949 µM
[12] = second compound 0.316 µM, first compound 3 µM
[13] = second compound 1 µM, first compound 0.00949 µM
[14] = second compound 1 µM, first compound 0.03 µM
[15] = second compound 1 µM, first compound 0.0949 µM
[16] = second compound 1 µM, first compound 0.3 µM
[17] = second compound 1 µM, first compound 0.949 µM
[18] = second compound 1 µM, first compound 3 µM
[19] = second compound 3.16 µM, first compound 0.00949 µM
[20] = second compound 3.16 µM, first compound 0.03 µM
[21] = second compound 3.16 µM, first compound 0.0949 µM
[22] = second compound 3.16 µM, first compound 0.3 µM
[23] = second compound 3.16 µM, first compound 0.949 µM
[24] = second compound 3.16 µM, first compound 3 µM
[25] = second compound 10 µM, first compound 0.00949 µM
[26] = second compound 10 µM, first compound 0.03 µM
[27] = second compound 10 µM, first compound 0.0949 µM
[28] = second compound 10 µM, first compound 0.3 µM
[29] = second compound 10 µM, first compound 0.949 µM
[30] = second compound 10 µM, first compound 3 µM
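Note: seven day compound exposure before luminescent viability read.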
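Throughout, for viability, T/C: 100% = DMSO vehicle control wells.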

Row | Compound | IC50 (second compound 0.1 µM) [nM] | IC50 (second compound 0.316 µM) [nM] | IC50 (second compound 1 µM) [nM] | IC50 (second compound 3.16 µM) [nM] | IC50 (second compound 10 µM) [nM] | viability, T/C [1] [%] | viability, T/C [2] [%] | viability, T/C [3] [%] | viability, T/C [4] [%] | viability, T/C [5] [%] | viability, T/C [6] [%] | viability, T/C [7] [%] | viability, T/C [8] [%] | viability, T/C [9] [%] | viability, T/C [10] [%] | viability, T/C [11] [%] | viability, T/C [12] [%] | viability, T/C [13] [%] | viability, T/C [14] [%] | viability, T/C [15] [%] | other results
1 | Nc1ccccc1NC(=O)c1ccc(CNC(=O)OCc2cccnc2)cc1 + NC1CC1c1ccc(-c2cccc(O)c2)cc1 | 29.5 | < 9.49 | 12.4 | < 9.49 | < 9.49 | 60.9 | 49 | 34.9 | 19.9 | 4.91 | 0.29 | 48.2 | 42.1 | 31.2 | 19.6 | 4.68 | 0.3 | 53.6 | 38.6 | 33.7 | viability, T/C [16]: 18.6%; viability, T/C [17]: 4.33%; viability, T/C [18]: 0.19%; viability, T/C [19]: 47.7%; viability, T/C [20]: 38.8%; viability, T/C [21]: 29.6%; viability, T/C [22]: 18.9%; viability, T/C [23]: 3.78%; viability, T/C [24]: 0.25%; viability, T/C [25]: 41.9%; viability, T/C [26]: 43.8%; viability, T/C [27]: 30.1%; viability, T/C [28]: 19%; viability, T/C [29]: 3.97%; viability, T/C [30]: 0.74%
2 | O=C(C=Cc1cccc(S(=O)(=O)Nc2ccccc2)c1)NO + NC1CC1c1ccc(-c2cccc(O)c2)cc1 | 29.8 | < 9.49 | 11.7 | 11.9 | < 9.49 | 59.3 | 48.9 | 34.9 | 25.2 | 1.42 | 0.23 | 52.5 | 42.6 | 38.6 | 24.9 | 1.57 | 0.46 | 54.4 | 43.4 | 40.3 | viability, T/C [16]: 22.8%; viability, T/C [17]: 0.74%; viability, T/C [18]: 0.53%; viability, T/C [19]: 52.1%; viability, T/C [20]: 45.7%; viability, T/C [21]: 35.7%; viability, T/C [22]: 22.8%; viability, T/C [23]: 0.66%; viability, T/C [24]: 0.11%; viability, T/C [25]: 45.2%; viability, T/C [26]: 36.9%; viability, T/C [27]: 31.8%; viability, T/C [28]: 18.7%; viability, T/C [29]: 0.41%; viability, T/C [30]: 0.15%

Reference: PubChem BioAssay AID1918934 (Molecular Pharmacology Branch, DTP, NCI, 2023)
